Measurements: patent US4465674A, “Azahomoerythromycin D derivative and intermediates therefor” (Pfizer Inc., priority 1983, dated 1984)
Values after ≈ are worked out from the molar mass of the structure shown. Like-named read-outs stand apart in the source and are kept apart here.

Legend:
Ent. cloac. = assay: in vitro MIC in BHI broth, Ent. cloac.; type: cell-based
From the text: (§1) Generally twelve 2 fold dilutions of the test compound are employed, with initial concentration of the test drug being in the range of 50 to 200 mcg./ml.
(§2) The susceptibility (MIC) of the test organism is accepted as the lowest concentration of compound capable of producing complete inhibition of growth as judged by the naked eye.

E. Coli = assay: in vitro MIC in BHI broth, E. Coli; type: cell-based; details: Escherichia coli
Prov. strua. = assay: in vitro MIC in BHI broth, Prov. strua.; type: cell-based
From the text: as §1, §2

H. influ. = assay: in vitro MIC in BHI broth, H. influ.; type: cell-based
From the text: as §1, §2

Past. mult. = assay: in vitro MIC in BHI broth, Past. mult.; type: cell-based
From the text: as §1, §2

Kleb. oxy. = assay: in vitro MIC in BHI broth, Kleb. oxy.; type: cell-based
From the text: as §1, §2

Staph. aur. = assay: in vitro MIC in BHI broth, Staph. aur.; type: cell-based
From the text: as §1, §2

Strep. faec. = assay: in vitro MIC in BHI broth, Strep. faec.; type: cell-based
From the text: as §1, §2

Ent. aerog. = assay: in vitro MIC in BHI broth, Ent. aerog.; type: cell-based
Neiss. sic. = assay: in vitro MIC in BHI broth, Neiss. sic.; type: cell-based
From the text: as §1, §2

Staph. epi = assay: in vitro MIC in BHI broth, Staph. epi; type: cell-based
From the text: as §1, §2

Kleb. pn. = assay: in vitro MIC in BHI broth, Kleb. pn.; type: cell-based
Serr. mar. = assay: in vitro MIC in BHI broth, Serr. mar.; type: cell-based
From the text: as §1, §2

Strep. pyog. = assay: in vitro MIC in BHI broth, Strep. pyog.; type: cell-based
From the text: as §1, §2

[1] = system: erythromycin A and D susceptible organisms and Gram negative microorganisms resistant to erythromycin A and D; assay: spectrum of antibacterial activity; type: cell-based
From the text: as §1

[2] = serum levels after oral dosage (micro-biological bioassay) in mice; type: in vivo
Experimental: Additionally, compound (II) is tested in vivo by the well-known mouse protection test, or by a micro-biological (bioassay) determination of serum levels in a variety of mammals (e.g., mouse, rat, dog).

[3] = Ent. cloac. 009, BHI broth, read-out: MIC
[4] = Prov. strua. 013, BHI broth, read-out: MIC
[5] = Past. mult. 001, BHI broth, read-out: MIC
[6] = Kleb. oxy. 024, BHI broth, read-out: MIC
[7] = Ent. aerog. 040, BHI broth, read-out: MIC
[8] = Staph. epi 111, BHI broth, read-out: MIC
[9] = Kleb. pn. 009, BHI broth, read-out: MIC
[10] = Serr. mar. 017, BHI broth, read-out: MIC
[11] = Strep. pyog. 203, BHI broth, read-out: MIC
[12] = Neiss. sic. 000, BHI broth, read-out: MIC

SMILES	MIC (Ent. cloac.; [3])	MIC (E. Coli; E. Coli 125)	MIC (E. Coli; E. Coli 129)	MIC (E. Coli; E. Coli 266)	MIC (E. Coli; E. Coli 470)	MIC (Prov. strua.; [4])	MIC (H. influ.; H. influ. 012)	MIC (H. influ.; H. influ. 036)	MIC (H. influ.; H. influ. 038)	MIC (H. influ.; H. influ. 042)	MIC (H. influ.; H. influ. 051)	MIC (H. influ.; H. influ. 073)	MIC (Past. mult.; [5])	MIC (Kleb. oxy.; [6])	MIC (Staph. aur.; Staph. aur. 005, read-out: MIC)	MIC (Staph. aur.; Staph. aur. 052, read-out: MIC)	MIC (Staph. epi; [8])	MIC (Kleb. pn.; Kleb. pn. 031, BHI broth)	MIC (Serr. mar.; [10])	MIC (Strep. pyog.; [11])	also measured
CC[C@H]1OC(=O)[C@H](C)[C@@H](O[C@H]2C[C@@](C)(OC)[C@@H](O)[C@H](C)O2)[C@H](C)[C@@H](O[C@@H]2O[C@H](C)C[C@H](N(C)C)[C@H]2O)[C@](C)(O)C[C@@H](C)C(=O)[C@H](C)[C@@H](O)[C@]1(C)O [(1), Erythromycin A]	> 50 mg/L	> 50 mg/L	> 50 mg/L	> 50 mg/L	1.56 mg/L (≈ 2.13 µM)	> 50 mg/L	3.12 mg/L (≈ 4.25 µM)	3.12 mg/L (≈ 4.25 µM)	1.56 mg/L (≈ 2.13 µM)	3.12 mg/L (≈ 4.25 µM)	3.12 mg/L (≈ 4.25 µM)	3.12 mg/L (≈ 4.25 µM)	0.78 mg/L (≈ 1.06 µM)	> 50 mg/L	0.05 mg/L (≈ 0.0681 µM)	0.1 mg/L (≈ 0.136 µM)	0.05 mg/L (≈ 0.0681 µM)	(a) (greater than 50)	> 50 mg/L	0.025 mg/L (≈ 0.0341 µM)	MIC (H. influ.; H. influ. 078): 1.56 mg/L (≈ 2.13 µM); MIC (H. influ.; H. influ. 081): 3.12 mg/L (≈ 4.25 µM); MIC (Staph. aur.; Staph. aur. 400): 6.25 mg/L (≈ 8.52 µM); MIC (Strep. faec.; Strep. faec. 006, BHI broth, read-out: MIC): 0.39 mg/L (≈ 0.531 µM); MIC (Ent. aerog.; [7]): > 50 mg/L; MIC (Neiss. sic.): 3.12 mg/L (≈ 4.25 µM); MIC (Kleb. pn.; [9]): > 50 mg/L
CC[C@H]1OC(=O)[C@H](C)[C@@H](O[C@H]2C[C@@](C)(O)[C@@H](O)[C@H](C)O2)[C@H](C)[C@@H](O[C@@H]2O[C@H](C)C[C@H](N(C)C)[C@H]2O)[C@](C)(O)C[C@@H](C)C(=O)[C@H](C)[C@@H](O)[C@H]1C [(2), Erythromycin D]		> 50 mg/L	> 50 mg/L	> 50 mg/L	3.12 mg/L (≈ 4.43 µM)		25 mg/L (≈ 35.5 µM)	50 mg/L (≈ 71 µM)	25 mg/L (≈ 35.5 µM)	25 mg/L (≈ 35.5 µM)	12.5 mg/L (≈ 17.8 µM)	50 mg/L (≈ 71 µM)						(a) (greater than 50)			MIC (Ent. cloac.): > 50 mg/L; MIC (Prov. strua.): > 50 mg/L; MIC (H. influ.; H. influ. 078): 12.5 mg/L (≈ 17.8 µM); MIC (H. influ.; H. influ. 081): 25 mg/L (≈ 35.5 µM); MIC (Past. mult.): 6.25 mg/L (≈ 8.88 µM); MIC (Kleb. oxy.): > 50 mg/L; MIC (Staph. aur.; Staph. aur. 005): 0.39 mg/L (≈ 0.554 µM); MIC (Staph. aur.; Staph. aur. 052): 0.39 mg/L (≈ 0.554 µM); MIC (Staph. aur.; Staph. aur. 400): 6.25 mg/L (≈ 8.88 µM); MIC (Strep. faec.): 0.39 mg/L (≈ 0.554 µM); MIC (Ent. aerog.): > 50 mg/L; MIC (Neiss. sic.): 6.25 mg/L (≈ 8.88 µM); MIC (Staph. epi): 0.2 mg/L (≈ 0.284 µM); MIC (Kleb. pn.): > 50 mg/L; MIC (Serr. mar.): > 50 mg/L; MIC (Strep. pyog.): 0.025 mg/L (≈ 0.0355 µM)
CC[C@H]1OC(=O)[C@H](C)[C@@H](O[C@H]2C[C@@](C)(OC)[C@@H](O)[C@H](C)O2)[C@H](C)[C@@H](O[C@@H]2O[C@H](C)C[C@H](N(C)C)[C@H]2O)[C@](C)(O)C[C@@H](C)CN(C)[C@H](C)[C@@H](O)[C@]1(C)O [(3), 9-deoxo-9a-methyl-9a-aza-9a-homoerythromycin A]	25 mg/L (≈ 33.4 µM)		6.25 mg/L (≈ 8.34 µM)	6.25 mg/L (≈ 8.34 µM)	0.78 mg/L (≈ 1.04 µM)	50 mg/L (≈ 66.8 µM)					1.56 mg/L (≈ 2.08 µM)		0.1 mg/L (≈ 0.134 µM)	25 mg/L (≈ 33.4 µM)	0.2 mg/L (≈ 0.267 µM)	0.39 mg/L (≈ 0.521 µM)	0.1 mg/L (≈ 0.134 µM)		50 mg/L (≈ 66.8 µM)	0.025 mg/L (≈ 0.0334 µM)	MIC (H. influ.; H. influ. 036, read-out: MIC): 0.78 mg/L (≈ 1.04 µM); MIC (H. influ.; H. influ. 038, read-out: MIC): 0.78 mg/L (≈ 1.04 µM); MIC (H. influ.; H. influ. 042, read-out: MIC): 0.78 mg/L (≈ 1.04 µM); MIC (H. influ.; H. influ. 073, read-out: MIC): 0.78 mg/L (≈ 1.04 µM); MIC (H. influ.; H. influ. 078, read-out: MIC): 0.39 mg/L (≈ 0.521 µM); MIC (H. influ.; H. influ. 081, read-out: MIC): 0.78 mg/L (≈ 1.04 µM); MIC (Staph. aur.; Staph. aur. 400, read-out: MIC): 25 mg/L (≈ 33.4 µM); MIC (Strep. faec.): 1.56 mg/L (≈ 2.08 µM); MIC (Neiss. sic.; [12]): 0.39 mg/L (≈ 0.521 µM)
CC[C@H]1OC(=O)[C@H](C)[C@@H](O[C@H]2C[C@@](C)(O)[C@@H](O)[C@H](C)O2)[C@H](C)[C@@H](O[C@@H]2O[C@H](C)C[C@H](N(C)C)[C@H]2O)[C@](C)(O)C[C@@H](C)CN(C)[C@H](C)[C@@H](O)[C@H]1C [Compound (II), 9-deoxo-9a-methyl-9a-aza-9a-homoerythromycin D]	> 50 mg/L	25 mg/L (≈ 34.8 µM)	12.5 mg/L (≈ 17.4 µM)	12.5 mg/L (≈ 17.4 µM)	0.39 mg/L (≈ 0.542 µM)	> 50 mg/L							0.2 mg/L (≈ 0.278 µM)	50 mg/L (≈ 69.5 µM)	0.39 mg/L (≈ 0.542 µM)	0.78 mg/L (≈ 1.08 µM)	0.39 mg/L (≈ 0.542 µM)	50 micrograms/ml.	> 50 mg/L	0.025 mg/L (≈ 0.0348 µM)	spectrum of antibacterial activity [1]: relatively broad spectrum of antibacterial activity which includes erythromycin A and D susceptible organisms and, in addition, many Gram negative microorganisms resistant to erythromycin A and D; absorption after oral dosage [2]: exceptionally well absorbed; serum levels [2]: exceptionally high and long lasting serum levels; MIC (H. influ.; H. influ. 012, read-out: MIC): 3.12 mg/L (≈ 4.34 µM); MIC (H. influ.; H. influ. 036, read-out: MIC): 3.12 mg/L (≈ 4.34 µM); MIC (H. influ.; H. influ. 038, read-out: MIC): 1.56 mg/L (≈ 2.17 µM); MIC (H. influ.; H. influ. 042, read-out: MIC): 3.12 mg/L (≈ 4.34 µM); MIC (H. influ.; H. influ. 051, read-out: MIC): 3.12 mg/L (≈ 4.34 µM); MIC (H. influ.; H. influ. 073, read-out: MIC): 0.39 mg/L (≈ 0.542 µM); MIC (H. influ.; H. influ. 078, read-out: MIC): 0.78 mg/L (≈ 1.08 µM); MIC (H. influ.; H. influ. 081, read-out: MIC): 3.12 mg/L (≈ 4.34 µM); MIC (Staph. aur.; Staph. aur. 400, read-out: MIC): > 50 mg/L; MIC (Ent. aerog.; [7]): 50 mg/L (≈ 69.5 µM); MIC (Neiss. sic.; [12]): 0.78 mg/L (≈ 1.08 µM); MIC (Kleb. pn.; [9]): 50 mg/L (≈ 69.5 µM)
